# From patent publication US20230255970A1, “COMPOSITIONS AND METHODS FOR TREATING PROLIFERATIVE DISEASES” (The Broad Institute, Inc., priority 2020, published 2023)
# Assays:
# [1] = tested on: KP230 cells; assay: Proliferation assay, KP230 cells; format: cell-based, mouse; conditions: 10 μM daily for 72 hours
# Excerpt: (§1) YAP1 cell culture and treatments: Eisinger lab: Murine KP230 cells, a Yap1-dependent cancer cell line, were derived from a tumor from the KP mouse model (Kras^G12/D; Trp53^f/fl), as described in Eisinger-Mathason, T. S. K. et al., Proc. Natl. Acad. Sci. U.S.A 112 (2015): E3402-11, which is hereby incorporated by reference in its entirety. STS-109 UPS cells were derived from a human UPS tumor and validated by Rebecca Gladdy, MD (Sinai Health System, Toronto, Ontario, Canada). TC32 cells were a gift from Patrick Grohar, MD, PhD (Children's Hospital of Philadelphia). HT-1080, HCT-116, and HEK293T cells were purchased from ATCC. KP230, HT-1080, and HEK-293T cells were grown in DMEM with 10% FBS, 1% L-glutamine, and 1% penicillin/streptomycin (P/S). STS-109 cells were cultured in DMEM with 20% FBS, 1% L-glutamine, and 1% P/S. TC32 cells were grown in RPMI with 10% FBS, 1% L-glutamine, and 1% P/S. HCT-116 cells were cultured in McCoy's 5A medium with 10% FBS and 1% P/S. All cells were confirmed to be negative for mycoplasma contamination and were maintained in an incubator at 37C with 5% CO2. For experimental purposes, cells were cultured for up to 20 passages before being discarded, and were grown to approximately 50% confluence to circumvent the effects of high cell density on Yap1 expression and activity. All cell lines in the Eisinger laboratory were treated with 10 μM of each inhibitor or an equivalent volume of DMSO every 24 hours for 3 days, except for STS-109 cells, which were treated daily for 8 days.
# NB4A treatment: Cells were treated with 10 μM of each inhibitor or an equivalent volume of DMSO every 24 hours for 3-8 days, and counted with a hemocytometer with trypan blue exclusion daily (KP230, HT-1080, TC32, HCT-116), or every 2 days (STS-109).
# [2] = tested on: TEAD-YAP interaction; conditions: HEK-TIYL cells, PubChem; cited from earlier work
# [3] = tested on: KP230 cells; assay: RNA sequencing and gene set enrichment analysis in KP230 cells; format: cell-based, mouse; conditions: 10 μM daily for 72 hours
# Excerpt: as §1, with “All cell lines in the Eisinger laboratory were treated with 10 μM of each inhibitor or an equivalent volume of DMSO every 24 hours for 3 days, except for STS-109 cells, which were treated daily for 8 days.” left out
# [4] = tested on: H9 human pluripotent stem cells; assay: qPCR of YAP1, CTGF and CYR61 in H9 hPSCs; format: cell-based; conditions: 24 hrs
# Method: H9 hPSCs (WiCell) were maintained on vitronectin (Thermo Fisher)-coated plates in Essential 8 (E8) medium. The cells were routinely passaged using 0.5 mM EDTA and treated with 5 μM Y-27632 dihydrochloride (Tocris) on the first day. For testing the effects of the small molecules, H9 hPSCs were seeded at 50K cells/cm^2 on vitronectin-coated plates in E8 medium supplemented with 5 μM Y-27632 dihydrochloride (day 0). On day 1, the medium was switched to E8 medium. On day 2, the medium was switched to E8 medium supplemented with the small molecules. Following overnight incubation, the cells were collected for subsequent analysis on day 3.
# The RNA was extracted using TRIzol (Life Technologies) and Direct-zol™ RNA MiniPrep kit (Zymo Research) as per manufacturer instructions. The RNA was reverse transcribed using iScript cDNA synthesis kit (Bio-Rad). The qPCR was performed on CFX Connect (Bio-Rad) using iTaq Universal SYBR Green Supermix (Bio-Rad). GAPDH was used as a reference gene for normalization. The relative gene expression levels were determined using the ddCt method.
# [5] = tested on: TEAD luciferase reporter; assay: YAP1-responsive TEAD luciferase reporter assay in HEK293T cells; format: cell-based; conditions: 10 μM, 48 h, HEK-293 cells
# Method: A TEAD luciferase reporter was co-transfected with or without a Yap expression construct into HEK293T cells followed by treatment for 48 hours with DMSO or the indicated compounds. The data shown are the average of three samples within a representative experiment.
# YAP1-related reporter assay: HEK293T cells were co-transfected using Lipofectamine 3000 (Thermo Fisher) with a TEAD luciferase reporter construct, 8×GTIIC-luciferase (Addgene plasmid #34615), a plasmid expressing Renilla Luciferase from a CMV promoter as a transfection control, along with a plasmid expressing 3×Flag-tagged wild-type YAP1 from a CMV promoter (pCMV5 backbone). Following transfection the cells were immediately treated with 0.2% DMSO, 10 μM NB4A, BRD-K34692511 or BRD-K28862419 and then lysed 48 hours later. Lysates were examined using the Dual-Luciferase Reporter Assay System (Promega) according to the manufacturer's protocol and measured using a SpectraMax iD3 plate reader (Molecular Devices). Firefly Luciferase activity from the TEAD reporter was normalized to Renilla Luciferase activity and then plotted as relative values.
structure (smiles),measurement,setting,value
"c1ccc(CNc2ncnc3ccccc23)cc1 [BRD-K43796186, N-benzylquinazolin-4-amine]",proliferation,[1],inhibited the proliferation
same,inhibitors of TEAD-YAP interaction,[2],showed activity
same,pathways down-regulated (GSEA),[3],"epithelial-mesenchymal transition, angiogenesis, and glycolysis"
same,pathways up-regulated (GSEA),[3],interferon alpha and gamma responses
same,YAP1 expression,[4],did not affect
same,expression of YAP1 target genes (CTGF and CYR61),[4],increased the expression of YAP1 target genes (CTGF and CYR61) in a dose-dependent manner
same,YAP1-responsive (TEAD) reporter activity,[5],no effect
